Experiment [1] deals with cardiac arrhythmias in conscious rats subjected to coronary artery occlusion. The experiment is described as follows: Antiarrhythmic efficacy: arrhythmias induced by coronary artery occlusion in conscious rats. Format: in vivo, rat. The conditions noted are these: infusion rate which reduces the arrhythmia score to 50% of that of vehicle-treated animals. The method, then: Antiarrhythmic efficacy was assessed by investigating the effect of a compound on the incidence of cardiac arrhythmias in conscious rats subjected to coronary artery occlusion. Rats weighing 200–300 gms were subjected to preparative surgery and assigned to groups in a random block design. In each case, the animal was anesthetized with halothane during surgical preparation. The left femoral artery was cannulated for measurement of mean arterial blood pressure and withdrawal of blood samples. The left femoral vein was also cannulated for injection of drugs. The thoracic cavity was opened and a polyethylene occluder loosely placed around the left anterior descending coronary artery. The thoracic cavity was then closed. ECG was recorded by insertion of electrodes placed along the anatomical axis of the heart. All cannulae and electrode leads were exteriorized in the mid scapular region. […] ECG, arrhythmias, blood pressure, heart rate and mortality were monitored for 30 minutes after occlusion. Arrhythmias were recorded as ventricular tachycardia (VT) and ventricular fibrillation (VF) and scored according to Curtis, M. J. and Walker, M. J. A., Cardiovasc. […]
Occlusion is associated with increases in R-wave height and “S-T” segment elevation: and an occluded zone (measured after death by cardiogreen dye perfusion) in the range of 25%–50% of total left-ventricular weight. […]

Experiment [2] relates to ECG parameters (cardiac sodium channel / potassium channel blockage). The experiment is described as follows: Measurement of ECG parameters in pentobarbital anesthetized rats. The conditions noted are these: bolus injection; for ED25 QT: dose producing a 25% increase in Q-T interval; for ED25 QRS: dose producing a 25% increase in QRS interval. Format: in vivo, rat. The method, then: Rats weighing 200–250 gms were used in this example. Animals were anesthetized with 60 mg/kg pentobarbital i.p. The carotid artery and jugular vein were cannulated for measurement of blood pressure and drug injection, respectively. ECG was recorded by insertion of electrodes placed along the anatomical axis of the heart. All compounds were given as bolus injections.
Various ECG parameters were measured. Table 4 describes the results of the tests as ED25 (micromol/kg) which are the doses required to produce a 25% increase in the parameter measured (NE=not estimated). The increases in P—R interval and QRS interval indicate cardiac sodium channel blockage while the increase in Q-T interval indicates ancillary cardiac potassium channel blockage which is the property of a type 1a antiarrhythmic.

For experiment [3], the system named is cardiac sodium channel blockage (left ventricle square wave stimulation). The experiment in a line: Assessment of sodium channel blockage by electrical stimulation of the left ventricle in rats. Format: in vivo. The conditions noted are these: infusion rate eliciting a 25% increase from control; rat left ventricle stimulation. The method, then:
Rats were prepared according to the preceding procedure. Two silver stimulating electrodes were inserted through the chest wall and implanted in the left ventricle. Square wave stimulation was used to determine threshold current for capture, ventricular fibrillation threshold current, and effective refractory period (Howard, P. G. and Walker, M. J. A., Proc. West. Pharmacol. Soc. 33:123–127 (1990)). Table 5 contains ED25 values for these indices of cardiac sodium channel blockage, where the ED25 is the infusion rate in micromol/kg/minute of compound required to elicit a 25% increase from control. The increases in refractoriness indicate ancillary blockage of potassium channels. The threshold current for capture is represented by “It”. The fibrillation threshold current is represented by “VFT”. The effective refracting period is represented by “ERP”.

Experimental findings from patent US6979685B1, “Cycloalkyl amine compounds and uses thereof” (Cardiome Pharma Corp., priority 1999, dated 2005) are described below.

Take `Cl.c1ccc2cc(CCOC3CCCC3N3CCOCC3)ccc2c1` [compound 1, (1R,2R)/(1S,2S)-2-(4-MORPHOLINYL)-1-(2-NAPHTHALENETHOXY)CYCLOPENTANE MONOHYDROCHLORIDE]: the ED50AA in experiment [1] was 1.5 µmol/kg/min. Moreover, the “ED25 PR” value in experiment [2] (dose producing a 25% increase in P-R interval) is 45 µmol/kg. Also, in experiment [2], the “ED25 QT” value is 2.5 µmol/kg and the “ED25 QRS” value worked out at 37 µmol/kg. Also, in experiment [3], the “ED25 ERP (effective refractory period)” value was 2.5 µmol/kg/min, the “ED25 It (threshold current for capture)” value came to 3.3 µmol/kg/min and the “ED25 VFT (fibrillation threshold current)” value stood at 1.3 µmol/kg/min.
As for `Cl.O=C1CCN(C2CCCC2OCCc2c(Cl)cccc2Cl)C1` [compound 2, (1R,2R)/(1S,2S)-2-(3-KETOPYRROLIDINYL)-1-(2,6-DICHLOROPHENETHOXY)CYCLOPENTANE MONOHYDROCHLORIDE], in experiment [1], the ED50AA amounted to 4 µmol/kg/min. Moreover, in experiment [2], the “ED25 QT” value is 3.3 µmol/kg and the “ED25 QRS” value is 9 µmol/kg. Further, in experiment [3], the “ED25 ERP (effective refractory period)” value was 2.6 µmol/kg/min and the “ED25 It (threshold current for capture)” value came to 10 µmol/kg/min.
